From paper PMC2905049 (Bioorganic & medicinal chemistry, 2010)

What was measured:
[1] = system: MT-2 cell line; assay: Compound toxicity by XTT in mock-infected MT-2 cells; format: cell-based; conditions: Homo sapiens, MT2
[2] = system: HIV-1IIIB; assay: Anti-HIV replication assay against wild-type HIV-1IIIB in MT-2 cell line; format: cell-based; conditions: for EC50 (μM): HIV-1IIIB replication in MT-2 cell line; for EC50: Human immunodeficiency virus 1, MT2
[3] = system: HIV-1NL4-3; assay: Anti-HIV replication assay against HIV-1NL4-3 in MT-4 cell line; format: cell-based; conditions: for EC50: Human immunodeficiency virus 1, MT4, read-out: HIV-1NL4-3 EC50 (μM); for EC50 (μM): HIV-1NL4-3, MT-4 cell line, Table 3 screening, 9 as control
[4] = system: RTMDR (multi-RT inhibitor-resistant strain); assay: Anti-HIV replication assay against RTMDR strain in MT-4 cell line; format: cell-based, HIV-1; conditions: Human immunodeficiency virus 1, MT4, read-out: RTMDR EC50 (μM)

SMILES	EC50 (μM) ([2]; Table 1)	EC50 [2]	EC50 [4]	EC50 [3]	further results
Cc1cn([C@H]2C[C@H](N=[N+]=[N-])[C@@H](CO)O2)c(=O)[nH]c1=O [AZT, zidovudine, reference compound]					IC50 [1]: 1870 µM; TI ([2]; therapeutic index IC50/EC50, HIV-1IIIB, MT-2, Table 1): 42700
CCc1cc(=O)c2ccc3c(c2o1)[C@@H](OC(=O)[C@@]12CC[C@@](C)(C(=O)O1)C2(C)C)[C@@H](OC(=O)[C@@]12CC[C@@](C)(C(=O)O1)C2(C)C)C(C)(C)O3 [Compound 3, reference compound]					HIV-1NL4-3 TI ([3]; therapeutic index IC50/EC50, MT-4, Table 2 screening): 116
CC(=O)c1ccc2c(c1C)[C@@H](OC(=O)[C@@]13CC[C@@](C)(C(=O)O1)C3(C)C)[C@@H](OC(=O)[C@@]13CC[C@@](C)(C(=O)O1)C3(C)C)C(C)(C)O2 [Compound 4, 3R,4R-Dicamphanoyloxy-2,2,5-trimethyl-6-acetyl-2H-chroman]	did not show anti-HIV activity	> 20 µM			
CCOc1c(C(C)=O)ccc2c1[C@@H](OC(=O)[C@@]13CC[C@@](C)(C(=O)O1)C3(C)C)[C@@H](OC(=O)[C@@]13CC[C@@](C)(C(=O)O1)C3(C)C)C(C)(C)O2 [Compound 5]	moderate activity				
Cc1cc(=O)oc2cc(OC(C)(C)[C@@H](COC(=O)[C@@]34CC[C@@](C)(C(=O)O3)C4(C)C)OC(=O)[C@@]34CC[C@@](C)(C(=O)O3)C4(C)C)ccc12 [Compound 6, 7-(2R,3-Di-O-(−)-camphanoyloxy-1,1-dimethylpropoxy)-4-methyl-2H-chromen-2-one]		> 20 µM	> 20 µM	> 20 µM	
Cc1cc(=O)oc2c([C@H](COC(=O)[C@@]34CC[C@@](C)(C(=O)O3)C4(C)C)OC(=O)[C@@]34CC[C@@](C)(C(=O)O3)C4(C)C)c(OC(C)C)ccc12 [Compound 7, 8-(1R,2-Di-O-(−)-camphanoyloxyethyl)-7-isopropoxy-4-methyl-2H-chromen-2-one]		> 20 µM	> 20 µM	> 20 µM	
Cc1cc(=O)oc2c([C@H](C)OC(=O)[C@@]34CC[C@@](C)(C(=O)O3)C4(C)C)c(OC(C)C)ccc12 [Compound 8]	lost anti-HIV activity completely	> 20 µM	> 20 µM	> 20 µM	
Cc1cc(=O)oc2c(CSC(=O)[C@@]34CC[C@@](C)(C(=O)O3)C4(C)C)c(OC(C)C)ccc12 [Compound 13]					EC50 (μM) [3]: moderate activity
COc1ccc(N(Cc2c(OC(C)C)ccc3c(C)cc(=O)oc23)C(=O)[C@@]23CC[C@@](C)(C(=O)O2)C3(C)C)cc1 [Compound 16, 8-[(N-4-Methoxyphenyl-N-(−)-camphanoyl)aminomethyl]-7-isopropoxy-4-methyl-2H-chromen-2-one]					EC50 (μM) [3]: moderate activity
